Measured values from the NIST ThermoML archive (doi:10.1016/j.fluid.2012.08.002).

Assay: xn = mol fraction of the nth substance listed
Conditions: 101 kPa, Liquid; for speed of sound: Sing-around technique in a fixed-path interferometer; for mass density: Vibrating tube method

CCCCCCn1cc[n+](C)c1.[Br-] [3-hexyl-1-methyl-1H-imidazolium bromide] + COCCO
Conditions	mass density [kg/m3]	speed of sound [m/s]
288.15 K, x1 = 0.0541	1003.16	1406.2
288.15 K, x1 = 0.1114	1033.95	1427.1
288.15 K, x1 = 0.2063	1075.85	1455
288.15 K, x1 = 0.3163	1113.65	1481.2
288.15 K, x1 = 0.399	1136.61	1498.5
288.15 K, x1 = 0.5066	1160.88	1518.9
288.15 K, x1 = 0.5919	1177.15	1532.1
288.15 K, x1 = 0.7003	1194.68	1550.1
288.15 K, x1 = 0.8193	1210.88	1578.5
288.15 K, x1 = 0.905	1221.01	1610.1
293.15 K, x1 = 0.0541	998.827	1389.9
293.15 K, x1 = 0.1114	1029.8	1411.5
293.15 K, x1 = 0.2063	1071.89	1440.2
293.15 K, x1 = 0.3163	1109.92	1467.3
293.15 K, x1 = 0.399	1132.93	1485.4
293.15 K, x1 = 0.5066	1157.28	1506
293.15 K, x1 = 0.5919	1173.58	1519.1
293.15 K, x1 = 0.7003	1191.1	1535.7
293.15 K, x1 = 0.8193	1207.23	1560
293.15 K, x1 = 0.905	1217.37	1584.7
298.15 K, x1 = 0.0541	994.442	1373.6
298.15 K, x1 = 0.1114	1025.66	1395.9
298.15 K, x1 = 0.2063	1067.99	1425.3
298.15 K, x1 = 0.3163	1106.17	1454
298.15 K, x1 = 0.399	1129.03	1472.5
298.15 K, x1 = 0.5066	1153.7	1493.4
298.15 K, x1 = 0.5919	1169.99	1506.4
298.15 K, x1 = 0.7003	1187.69	1521.9
298.15 K, x1 = 0.8193	1203.66	1543.4
298.15 K, x1 = 0.905	1213.6	1563.8
303.15 K, x1 = 0.0541	990.104	1357.4
303.15 K, x1 = 0.1114	1021.6	1380.5
303.15 K, x1 = 0.2063	1064.1	1410.7
303.15 K, x1 = 0.3163	1102.4	1440.7
303.15 K, x1 = 0.399	1125.44	1459.6
303.15 K, x1 = 0.5066	1150.12	1481
303.15 K, x1 = 0.5919	1166.5	1494.1
303.15 K, x1 = 0.7003	1184.24	1509.1
303.15 K, x1 = 0.8193	1200.22	1528.5
303.15 K, x1 = 0.905	1210.1	1545.7
308.15 K, x1 = 0.0541	985.747	1341.1
308.15 K, x1 = 0.1114	1017.43	1365.1
308.15 K, x1 = 0.2063	1060.19	1396.3
308.15 K, x1 = 0.3163	1098.64	1427.5
308.15 K, x1 = 0.399	1121.85	1446.7
308.15 K, x1 = 0.5066	1146.54	1468.7
308.15 K, x1 = 0.5919	1162.92	1482
308.15 K, x1 = 0.7003	1180.7	1496.7
308.15 K, x1 = 0.8193	1196.79	1514.7
308.15 K, x1 = 0.905	1206.71	1529.7
313.15 K, x1 = 0.0541	981.397	1324.9
313.15 K, x1 = 0.1114	1013.1	1349.9
313.15 K, x1 = 0.2063	1056.1	1382.4
313.15 K, x1 = 0.3163	1094.88	1414.3
313.15 K, x1 = 0.399	1118.18	1433.9
313.15 K, x1 = 0.5066	1142.96	1456.5
313.15 K, x1 = 0.5919	1159.44	1470.3
313.15 K, x1 = 0.7003	1177.16	1484.8
313.15 K, x1 = 0.8193	1193.35	1501.8
313.15 K, x1 = 0.905	1203.34	1515.2
318.15 K, x1 = 0.0541	976.988	1308.7
318.15 K, x1 = 0.1114	1009.12	1335.8
318.15 K, x1 = 0.2063	1052.25	1369.4
318.15 K, x1 = 0.3163	1091.12	1401.5
318.15 K, x1 = 0.399	1114.51	1421.1
318.15 K, x1 = 0.5066	1139.37	1444.5
318.15 K, x1 = 0.5919	1155.95	1458.7
318.15 K, x1 = 0.7003	1173.69	1473.2
318.15 K, x1 = 0.8193	1189.89	1489.7
318.15 K, x1 = 0.905	1199.95	1501.9
